Experimental data reported in the supplement of paper PMC11061612.

Experiments:
Assay in all cases: Bliss excess, mean over the matrix (fraction); higher = more synergy
A704 (Kidney Carcinoma) = test system: A704 (Kidney Carcinoma)
Summary of the method: (§1)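 After 24 hours at 37°C and 5% CO2 in 1536-well plates, cells in DMEM/F12 or RPMI plus 10% FBS received two-drug dose matrices for 72 hours. Viability came from CellTiter-Glo 2.0 luminescence and was scaled as inhibition, anchored at 0 by vehicle wells and at 1 by blank wells. Combination Emax is taken as the second-highest inhibition in the matrix, and Bliss excess as the observed combination effect less EA + EB − EA·EB, with EA and EB the single-agent effects.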

BT-20 (Breast Carcinoma) = test system: BT-20 (Breast Carcinoma)
Summary of the method: as §1

[1] = test system: DG-75 (Burkitt's Lymphoma)
Summary of the method: as §1

[2] = test system: EMC-BAC-2 (Non-Small Cell Lung Carcinoma)
Summary of the method: as §1

EW-18 (Ewing's Sarcoma) = test system: EW-18 (Ewing's Sarcoma)
Summary of the method: as §1

[3] = test system: HSC-2 (Oral Cavity Carcinoma)
Summary of the method: as §1

[4] = test system: HuP-T3 (Pancreatic Carcinoma)
Summary of the method: as §1

IMR-5 (Neuroblastoma) = test system: IMR-5 (Neuroblastoma)
Summary of the method: as §1

[5] = test system: KYSE-150 (Esophageal Squamous Cell Carcinoma)
Summary of the method: as §1

[6] = test system: NCI-H2347 (Lung Adenocarcinoma)
Summary of the method: as §1

[7] = test system: NCI-H2405 (Lung Adenocarcinoma)
Summary of the method: as §1

[8] = test system: NCI-H322M (Lung Adenocarcinoma)
Summary of the method: as §1

[9] = test system: NCI-H513 (Other Solid Carcinomas)
Summary of the method: as §1

NH-12 (Neuroblastoma) = test system: NH-12 (Neuroblastoma)
Summary of the method: as §1

[10] = test system: OCUB-M (Breast Carcinoma)
Summary of the method: as §1

RPMI-7951 (Melanoma) = test system: RPMI-7951 (Melanoma)
Summary of the method: as §1

[11] = test system: SCC-9 (Oral Cavity Carcinoma)
Summary of the method: as §1

[12] = test system: SNU-C1 (Colorectal Carcinoma)
Summary of the method: as §1

[13] = test system: TGBC11TKB (Gastric Carcinoma)
Summary of the method: as §1

U-87-MG (Glioblastoma) = test system: U-87-MG (Glioblastoma)
Summary of the method: as §1

Compound | Bliss excess (A704 (Kidney Carcinoma)) | Bliss excess (BT-20 (Breast Carcinoma)) | Bliss excess [1] | Bliss excess [2] | Bliss excess (EW-18 (Ewing's Sarcoma)) | Bliss excess [3] | Bliss excess [4] | Bliss excess (IMR-5 (Neuroblastoma)) | Bliss excess [5] | Bliss excess [6] | Bliss excess [7] | Bliss excess [8] | Bliss excess [9] | Bliss excess (NH-12 (Neuroblastoma)) | Bliss excess [10] | Bliss excess (RPMI-7951 (Melanoma)) | Bliss excess [11] | Bliss excess [12] | Bliss excess [13] | Bliss excess (U-87-MG (Glioblastoma))
CC(=O)c1c(C)c2cnc(Nc3ccc(N4CCNCC4)cn3)nc2n(C2CCCC2)c1=O [Palbociclib] + Cn1cnc2c(F)c(Nc3ccc(Br)cc3Cl)c(C(=O)NOCCO)cc21 [Selumetinib] (first compound max 10 µM, 7x7, partner max 10 µM) | -0.0874 | 0.0253 | 0.028 | 0.0049 | -0.0542 | 0.0254 | -0.014 | 0.0682 | 0.127 | -0.0362 | -0.016 | 0.0515 | -0.035 | 0.0409 | -0.0413 | 0.0492 | 0.0811 | 0.0288 | 0.0327 | -0.0929
Cc1c2c(nn1C)CSCc1cc(n(C)n1)CSc1cc(c3ccccc3c1)OCCCc1c(C(=O)O)n(C)c3c-2c(Cl)ccc13 [AZD5991] + C[C@@H]1COCCN1C2=NC(=NC(=C2)C3(CC3)[S@](=N)(=O)C)C4=C5C=CNC5=NC=C4 [AZD6738] (first compound max 1 µM, 7x7, partner max 10 µM) | -0.0522 | 0.0977 | -0.0464 | 0.066 | -0.0141 | -0.0459 | -0.0053 | 0.0245 | 0.0556 | -0.0489 | 0.0105 | 0.0012 | 0.0278 | 0.0031 | 0.0339 | 0.0095 | 0.0134 | -0.0626 | -0.0218 | -0.0241
COc1cc2ncnc(Nc3ccc(F)c(Cl)c3)c2cc1OCCCN1CCOCC1 [Gefitinib] + CC(C)n1c(=O)n(C)c2cnc3cc(F)c(-c4ccc(OCCCN5CCCCC5)nc4)cc3c21 [AZD1390] (first compound max 10 µM, 7x7, partner max 0.3 µM) | -0.0325 | -0.047 | -0.0333 | -0.0706 | -0.0343 | -0.0442 | -0.0595 | -0.0516 | -0.0834 | -0.0771 | -0.0597 | -0.0312 | -0.0828 | -0.0643 | -0.0537 | -0.0498 | -0.0309 | -0.0507 | -0.0382 | -0.0771
COc1nnc2ccc(N3CCC(c4ccc(OCCN5CCN(C)C(=O)[C@H]5C)cc4)CC3)nn12 [AZD5153] + C[C@@H]1COCCN1C2=NC(=NC(=C2)C3(CC3)[S@](=N)(=O)C)C4=C5C=CNC5=NC=C4 [AZD6738] (first compound max 1 µM, 7x7, partner max 10 µM) | -0.0278 | -0.0267 | -0.0203 | 0.0722 | -0.0306 | -0.0039 | -0.0119 | 0.0121 | -0.0482 | 0.0599 | 0.0638 | -0.102 | 0.0117 | -0.0381 | 0.0415 | 0.0423 | 0.0394 | -0.0404 | -0.046 | 0.0506
CC1(C)CCC(CN2CCN(c3ccc(C(=O)NS(=O)(=O)c4ccc(NCC5CCOCC5)c([N+](=O)[O-])c4)c(Oc4cnc5[nH]ccc5c4)c3)CC2)=C(c2ccc(Cl)cc2)C1 [Venetoclax] + Cc1cc2ncnn2cc1Nc1ncc2c(n1)n(C1CCOCC1)c(=O)n2C [AZD7648] (first compound max 1 µM, 7x7, partner max 10 µM) | -0.0215 | -0.0229 | -0.0157 | -0.0596 | 0.0188 | -0.0177 | -0.0331 | -0.0038 | -0.0509 | -0.0665 | -0.0492 | -0.0397 | -0.0321 | -0.0072 | -0.0149 | -0.0226 | -0.0211 | -0.0259 | -0.0592 | -0.0832
COc1nnc2ccc(N3CCC(c4ccc(OCCN5CCN(C)C(=O)[C@H]5C)cc4)CC3)nn12 [AZD5153] + Cn1cnc2c(F)c(Nc3ccc(Br)cc3Cl)c(C(=O)NOCCO)cc21 [Selumetinib] (first compound max 1 µM, 7x7, partner max 10 µM) | -0.0077 | 0.0309 | -0.0177 | -0.0101 | -0.0364 | 0.045 | 0.0075 | -0.0047 | 0.0195 | -0.0361 | -0.0297 | 0.0052 | -0.051 | -0.0476 | -0.0036 | 0.02 | 0.042 | -0.0447 | 0.0671 | -0.0591
Cc1nc(Nc2ncc(C(=O)Nc3c(C)cccc3Cl)s2)cc(N2CCN(CCO)CC2)n1 [Dasatinib] + CC(=O)Nc1cccc(-n2c(=O)n(C3CC3)c(=O)c3c(Nc4ccc(I)cc4F)n(C)c(=O)c(C)c32)c1 [Trametinib] (first compound max 2 µM, 7x7, partner max 1 µM) | 0.0541 | -0.0878 | 0.0387 | -0.0795 | -0.086 | -0.0238 | 0.0459 | -0.0059 | -0.035 | 0.153 | 0.0721 | 0.0004 | 0.0273 | -0.0102 | -0.0384 | -0.0745 | 0.0784 | -0.0616 | -0.103 | -0.0575
